For eleven compounds, TGI and GI50 results are on record in PubChem BioAssay (NCI).

Each structure is given as a SMILES string.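 Assay format: 96-well plates, 48-hour exposure. Here, GI50 denotes the concentration required for 50% inhibition of growth. At the TGI there is no net growth.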

Among the test systems are MCF7 breast; NCI-H522 lung; OVCAR-8 ovarian; ACHN renal; M14 melanoma; HCT-15 colon; SW-620 colon; SF-539 CNS; PC-3 prostate; HOP-62 NSCLC; LOX IMVI melanoma; MOLT-4 leukemia; T-47D breast; SR leukemia; HS 578T breast.
What all share (experiment): growth of human tumour cells (NCI), 48 h

In the case of `NNc1nnc(CCCCCCCCc2nnc(NN)n2N)n1N`, the TGI with MCF7 breast is more than 100 µM; in the test with NCI-H522 lung, more than 100 µM; with OVCAR-8 ovarian, 76.7 µM; in the test on ACHN renal, more than 100 µM; with M14 melanoma, more than 100 µM; in the test with HCT-15 colon it was more than 100 µM. Moreover, the TGI in the test with SW-620 colon, in the test with SF-539 CNS, in the test on PC-3 prostate, in the test on HOP-62 NSCLC, in the test on LOX IMVI melanoma and with MOLT-4 leukemia was more than 100 µM throughout.

For `Cc1cc2nc3c(C#N)c(-c4ccccc4)/c(=C\Nc4ccc(F)cc4)c(=O)n3c2cc1C`, the TGI in the test with MCF7 breast, with NCI-H522 lung, with OVCAR-8 ovarian, in the test with ACHN renal, in the test with M14 melanoma and in the test on HCT-15 colon was more than 100 µM each time. For the same compound, the TGI in the test on T-47D breast, in the test on SW-620 colon, with SF-539 CNS, with PC-3 prostate, in the test with HOP-62 NSCLC and in the test with LOX IMVI melanoma was more than 100 µM each time.

As for `O=C1c2ccccc2N2OC3(N4CCOCC4)CCCC3C12c1ccccc1` (stereo not drawn), the TGI with SR leukemia, in the test with NCI-H522 lung, in the test with OVCAR-8 ovarian, with ACHN renal, with M14 melanoma and with HCT-15 colon was more than 100 µM each time. For the same compound, the TGI with SW-620 colon, with SF-539 CNS, in the test on HOP-62 NSCLC and with MOLT-4 leukemia was more than 100 µM each time.

With `Cc1cccc2sc(NC(=O)NS(=O)(=O)n3cnc4ccccc43)nc12`, the TGI with MCF7 breast was more than 100 µM; in the test with NCI-H522 lung, 62.9 µM; in the test with OVCAR-8 ovarian it was 67.1 µM; in the test with ACHN renal, more than 100 µM; in the test on M14 melanoma, more than 100 µM; in the test with HCT-15 colon it was more than 100 µM. Also, the TGI in the test on T-47D breast was 62.6 µM; in the test on SW-620 colon, more than 100 µM; in the test with SF-539 CNS, 78 µM; with PC-3 prostate, 95.3 µM; in the test on HOP-62 NSCLC, more than 100 µM; in the test on HS 578T breast, 52.1 µM. In the test with MOLT-4 leukemia, this compound showed a TGI of 88 µM.

For `O=S(=O)(/N=C(\NO)Nc1ccc(Cl)cc1)c1cc(C(F)(F)F)cc(C(F)(F)F)c1`, the TGI in the test on NCI-H522 lung amounted to 40.4 µM; with OVCAR-8 ovarian, 34.5 µM; in the test with ACHN renal it was 31.3 µM; in the test with M14 melanoma, 32.1 µM; in the test with HCT-15 colon, 38.7 µM; in the test with T-47D breast, 67.2 µM. Besides, the TGI in the test with SW-620 colon was more than 100 µM; with SF-539 CNS, 46.6 µM; in the test on PC-3 prostate it was 31.5 µM; in the test on HOP-62 NSCLC it was 36.9 µM; with LOX IMVI melanoma, 34.2 µM; in the test with HS 578T breast, 60.5 µM. For the same compound, the TGI with MOLT-4 leukemia is 70.2 µM.

As for `CC(=O)NC1C(OCC(=O)NCCNc2ccc([N+](=O)[O-])c3[nH]c4ccccc4c(=O)c23)C(O)C(CO)OC1(C)OCc1ccccc1` (stereo not drawn), the TGI with MCF7 breast, in the test with NCI-H522 lung, in the test on OVCAR-8 ovarian, in the test on ACHN renal, with M14 melanoma and in the test with HCT-15 colon was more than 100 µM each time. In addition, the TGI in the test with T-47D breast, in the test with SW-620 colon, with SF-539 CNS, with PC-3 prostate, in the test on HOP-62 NSCLC and in the test with LOX IMVI melanoma was more than 100 µM each time. The TGI with HS 578T breast and in the test on MOLT-4 leukemia was more than 100 µM each time.

Regarding `CCOC(=O)C1(C/C=C\CBr)CCCC1=O` (stereo not drawn), the TGI in the test on MCF7 breast was 55.2 µM; with NCI-H522 lung it was 46.8 µM; in the test with OVCAR-8 ovarian, more than 100 µM; in the test with ACHN renal, 56.5 µM; in the test on M14 melanoma, 75.1 µM; in the test with HCT-15 colon, 66.5 µM. For the same compound, the TGI was 94.3 µM in the test with T-47D breast; 54.9 µM with SW-620 colon; 44.9 µM with SF-539 CNS; more than 100 µM in the test on PC-3 prostate; 56.7 µM in the test on HOP-62 NSCLC; 31.2 µM in the test on LOX IMVI melanoma. Further, the TGI in the test with HS 578T breast is more than 100 µM.

Regarding `Cn1c(CNc2ccc(-c3n[nH]c(=S)n3C)cc2)n[nH]c1=S`, the TGI in the test on MCF7 breast, with NCI-H522 lung, in the test with OVCAR-8 ovarian, in the test on ACHN renal, in the test on M14 melanoma and with HCT-15 colon was more than 100 µM in each case. For the same compound, the TGI in the test with SW-620 colon, with SF-539 CNS, in the test with PC-3 prostate, in the test on HOP-62 NSCLC, in the test with LOX IMVI melanoma and in the test with MOLT-4 leukemia was more than 100 µM in each case.

For `O=C(c1ccc(Cl)cc1)N(C(=O)N1CCCCC1)c1ccccc1`, the TGI is more than 100 µM in the test on MCF7 breast; more than 100 µM with OVCAR-8 ovarian; more than 100 µM with ACHN renal; more than 100 µM with M14 melanoma; more than 100 µM in the test with HCT-15 colon; 89 µM in the test with T-47D breast. The TGI is more than 100 µM in the test with SW-620 colon; more than 100 µM in the test with SF-539 CNS; more than 100 µM in the test with PC-3 prostate; more than 100 µM in the test on LOX IMVI melanoma; more than 100 µM in the test on HS 578T breast; 72 µM with MOLT-4 leukemia.

In the case of `O=C1CC(c2cccc(Cl)c2)Nc2ccc(N3CCCC3)cc21` (stereo not drawn), the GI50 in the test on MCF7 breast is 0.0649 µM; in the test with HCT-15 colon, 0.0329 µM. Moreover, the TGI with MCF7 breast was more than 100 µM; in the test on NCI-H522 lung, 0.0677 µM; in the test on OVCAR-8 ovarian, 3.85 µM; with ACHN renal it was more than 100 µM; with M14 melanoma it was more than 100 µM; in the test on HCT-15 colon, more than 100 µM. The TGI with T-47D breast, in the test on SW-620 colon, in the test on PC-3 prostate, with HOP-62 NSCLC and in the test on LOX IMVI melanoma was more than 100 µM in each case.

On to `COc1cc(C2c3cc4c(cc3OC(NN)C2C)OCO4)cc(OC)c1O` (stereo not drawn), for which the TGI in the test on MCF7 breast is more than 100 µM; in the test on NCI-H522 lung it was 42.2 µM; in the test with OVCAR-8 ovarian, 67.8 µM; with M14 melanoma it was more than 100 µM; with HCT-15 colon, 34.2 µM; in the test on T-47D breast it was 31 µM. Also, the figures for the TGI in the test on SW-620 colon, in the test with SF-539 CNS and in the test with PC-3 prostate were more than 100 µM, 45.4 µM and more than 100 µM, respectively.
